Source: ChEMBL document CHEMBL1201862, “PubChem BioAssay data set” (2004)
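Cultured in 96-well plates, cells were exposed to test compound for 48 hours across five concentrations. GI50 marks 50% less growth.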 Activity calls are given as the source filed them. Cut-off read from the data, not from the text of the source: active = GI50 up to about 1.1 µM and inactive = higher.

Legend:
Assay in all cases: growth of human tumour cells (NCI), 48 h
HCT-15 = test system: HCT-15
HT-29 = test system: HT-29
U-251 = test system: U-251
SF-539 = test system: SF-539
SNB-75 = test system: SNB-75
HOP-92 = test system: HOP-92
MOLT-4 = test system: MOLT-4
KM12 = test system: KM12
NCI-H460 = test system: NCI-H460
XF498 = test system: XF498
786-0 = test system: 786-0
SW-620 = test system: SW-620
Malme-3M = test system: Malme-3M
OVCAR-4 = test system: OVCAR-4
UO-31 = test system: UO-31
M14 = test system: M14
HCT-116 = test system: HCT-116
LOX IMVI = test system: LOX IMVI
COLO 205 = test system: COLO 205
IGROV-1 = test system: IGROV-1
K562 = test system: K562
CAKI-1 = test system: CAKI-1
RPMI-8226 = test system: RPMI-8226
SNB-19 = test system: SNB-19
TK-10 = test system: TK-10
HL-60 = test system: HL-60
NCI-H23 = test system: NCI-H23
HCC 2998 = test system: HCC 2998
SN12C = test system: SN12C
OVCAR-8 = test system: OVCAR-8
SF-295 = test system: SF-295
NCI-H522 = test system: NCI-H522
A549 = test system: A549
RXF 631 = test system: RXF 631
DMS-114 = test system: DMS-114
ACHN = test system: ACHN
DMS-273 = test system: DMS-273
DLD-1 = test system: DLD-1
CCRF-CEM = test system: CCRF-CEM
A498 = test system: A498
UACC-257 = test system: UACC-257
LXFL 529 = test system: LXFL 529
HOP-18 = test system: HOP-18
EKVX = test system: EKVX
SK-OV-3 = test system: SK-OV-3
HOP-62 = test system: HOP-62
OVCAR-3 = test system: OVCAR-3
NCI-H226 = test system: NCI-H226
RXF 393 = test system: RXF 393
SK-MEL-5 = test system: SK-MEL-5
SF-268 = test system: SF-268
M19-MEL = test system: M19-MEL
UACC-62 = test system: UACC-62
KM-20L2 = test system: KM-20L2
OVCAR-5 = test system: OVCAR-5
SK-MEL-28 = test system: SK-MEL-28
SNB-78 = test system: SNB-78
SK-MEL-2 = test system: SK-MEL-2
SR = test system: SR

CCCCCC1CC=CC(NC(=O)OCc2ccccc2)C1/C=C/CCCC1OCCO1 (centres undefined)
GI50 (HCT-15): 86.7 µM
GI50 (HT-29): > 100 µM (inactive)
GI50 (U-251): 73.5 µM (inactive)
GI50 (SF-539): > 100 µM (inactive)
GI50 (SNB-75): > 56 µM (inactive)
GI50 (HOP-92): > 45.7 µM (inactive)
GI50 (MOLT-4): 12.5 µM (inactive)
GI50 (KM12): 48 µM (inactive)
GI50 (NCI-H460): 51.6 µM (inactive)
GI50 (XF498): 52 µM (inactive)
GI50 (786-0): > 100 µM (inactive)
GI50 (SW-620): > 100 µM (inactive)
GI50 (Malme-3M): 50.6 µM (inactive)
GI50 (OVCAR-4): > 72.9 µM (inactive)
GI50 (UO-31): 13.1 µM (inactive)
GI50 (M14): > 100 µM (inactive)
GI50 (HCT-116): 35.8 µM (inactive)
GI50 (LOX IMVI): 57.7 µM (inactive)
GI50 (COLO 205): 44.2 µM (inactive)
GI50 (IGROV-1): > 100 µM (inactive)
GI50 (K562): 24.9 µM (inactive)
GI50 (CAKI-1): 23.5 µM (inactive)
GI50 (RPMI-8226): 17.9 µM (inactive)
GI50 (SNB-19): 74.1 µM (inactive)
GI50 (TK-10): 97.7 µM (inactive)
GI50 (HL-60): 7.93 µM (inactive)
GI50 (NCI-H23): 44.7 µM (inactive)
GI50 (HCC 2998): 78.3 µM (inactive)
GI50 (SN12C): > 100 µM (inactive)
GI50 (OVCAR-8): 73.6 µM (inactive)
GI50 (SF-295): 66.5 µM (inactive)
GI50 (NCI-H522): 20.8 µM (inactive)
GI50 (A549): 23.3 µM (inactive)
GI50 (RXF 631): 48.3 µM (inactive)
GI50 (DMS-114): 21.4 µM (inactive)
GI50 (ACHN): 24.1 µM (inactive)
GI50 (DMS-273): 36.2 µM (inactive)
GI50 (DLD-1): > 66.5 µM (inactive)
GI50 (CCRF-CEM): 47.5 µM (inactive)
GI50 (A498): 17.7 µM (inactive)
GI50 (UACC-257): 50.7 µM (inactive)
GI50 (LXFL 529): 40.6 µM (inactive)
GI50 (HOP-18): > 100 µM (inactive)
GI50 (EKVX): 96.6 µM (inactive)
GI50 (SK-OV-3): > 100 µM (inactive)
GI50 (HOP-62): > 100 µM (inactive)
GI50 (OVCAR-3): 38.5 µM (inactive)
GI50 (NCI-H226): 30.9 µM (inactive)
GI50 (RXF 393): 15.1 µM (inactive)
GI50 (SK-MEL-5): 17.9 µM (inactive)
GI50 (SF-268): > 42.8 µM (inactive)
GI50 (M19-MEL): > 91.4 µM (inactive)
GI50 (UACC-62): > 93.5 µM (inactive)
GI50 (KM-20L2): > 100 µM (inactive)
GI50 (OVCAR-5): > 53.8 µM (inactive)
GI50 (SK-MEL-28): > 36.5 µM (inactive)
GI50 (SNB-78): > 100 µM (inactive)
GI50 (SK-MEL-2): 35.2 µM (inactive)

CCCCCCC1=NOC(C(c2cc[nH]c2)N(C)[C@H](C(=O)OC)C(C)C)C1 (some centres undefined)
GI50 (HT-29): 34 µM (inactive)
GI50 (SR): 23.6 µM (inactive)
GI50 (U-251): 49.5 µM (inactive)
GI50 (SF-539): 57 µM (inactive)
GI50 (SNB-75): 55.6 µM (inactive)
GI50 (HOP-92): 51.4 µM (inactive)
GI50 (MOLT-4): 19.4 µM (inactive)
GI50 (KM12): 21.9 µM (inactive)
GI50 (XF498): 35.3 µM (inactive)
GI50 (786-0): 58.9 µM (inactive)
GI50 (SW-620): 26.6 µM (inactive)
GI50 (Malme-3M): 70.1 µM (inactive)
GI50 (OVCAR-4): 39 µM (inactive)
GI50 (UO-31): 61.7 µM (inactive)
GI50 (M14): 51.8 µM (inactive)
GI50 (HCT-116): 34.4 µM (inactive)
GI50 (LOX IMVI): 26.1 µM (inactive)
GI50 (COLO 205): 15.3 µM (inactive)
GI50 (IGROV-1): 65.8 µM (inactive)
GI50 (K562): 39.2 µM (inactive)
GI50 (CAKI-1): > 100 µM (inactive)
GI50 (SNB-19): 65.9 µM (inactive)
GI50 (TK-10): 35.4 µM (inactive)
GI50 (HL-60): 27.3 µM (inactive)
GI50 (NCI-H23): 47.8 µM (inactive)
GI50 (HCC 2998): 33.9 µM (inactive)
GI50 (SN12C): 20.6 µM (inactive)
GI50 (OVCAR-8): 42.2 µM (inactive)
GI50 (SF-295): 47.1 µM (inactive)
GI50 (NCI-H522): 16.1 µM (inactive)
GI50 (A549): 62.5 µM (inactive)
GI50 (RXF 631): 36.6 µM (inactive)
GI50 (DMS-114): 33.3 µM (inactive)
GI50 (ACHN): 34.4 µM (inactive)
GI50 (DMS-273): 25.8 µM (inactive)
GI50 (DLD-1): 34.1 µM (inactive)
GI50 (CCRF-CEM): 16.7 µM (inactive)
GI50 (A498): > 100 µM (inactive)
GI50 (UACC-257): 37.7 µM (inactive)
GI50 (LXFL 529): 46.8 µM (inactive)
GI50 (HOP-18): 58.1 µM (inactive)
GI50 (EKVX): 19.8 µM (inactive)
GI50 (SK-OV-3): > 100 µM (inactive)
GI50 (HOP-62): > 100 µM (inactive)
GI50 (OVCAR-3): 25.4 µM (inactive)
GI50 (NCI-H226): 51.1 µM (inactive)
GI50 (RXF 393): 52.7 µM (inactive)
GI50 (SK-MEL-5): 41.8 µM (inactive)
GI50 (SF-268): > 100 µM (inactive)
GI50 (M19-MEL): 32 µM (inactive)
GI50 (UACC-62): 37.1 µM (inactive)
GI50 (KM-20L2): 39 µM (inactive)
GI50 (OVCAR-5): > 100 µM (inactive)
GI50 (SK-MEL-28): 75 µM (inactive)
GI50 (SNB-78): 21.3 µM (inactive)
GI50 (SK-MEL-2): 25.8 µM (inactive)
